Laboratory results from patent publication US9023821B2, “Use of MicroRNA for treating diseases associated with a dysfunction of the cilia in multiciliated epithelial cells” (Centre National de la Recherche Scientifique, priority 2009, dated 2015).

Tests used:
[1] = test system: human airway epithelial cells (HAECs); test: High-throughput sequencing (HTS) of miRNAs at four stages of differentiation of HAECs; conditions: for Modulation (ratio of the level of intensity of expression in log2 in two stages of differentiation) measured by high-throughput sequencing, D7 − D0 / Modulation (ratio of the level of intensity of expression in log2 in two stages of differentiation) measured by high-throughput sequencing, FC − D7 / Modulation (ratio of the level of intensity of expression in log2 in two stages of differentiation) measured by high-throughput sequencing, WD − D0 / Modulation (ratio of the level of intensity of expression in log2 in two stages of differentiation) measured by high-throughput sequencing, WD − FC / Level of intensity of expression in log2 measured by high-throughput sequencing, D0 / Level of intensity of expression in log2 measured by high-throughput sequencing, D7 / Level of intensity of expression in log2 measured by high-throughput sequencing, FC / Level of intensity of expression in log2 measured by high-throughput sequencing, WD: Table VI; for Level of intensity of expression in log2 At the differentiated stage (WD) measured in HTS: healthy human airway epithelial tissue; for Level of intensity of expression in log2 measured by high-throughput sequencing, D0: stage D0; for Level of intensity of expression in log2 measured by high-throughput sequencing, D7: stage D7; for Level of intensity of expression in log2 measured by high-throughput sequencing, FC: stage FC; for Level of intensity of expression in log2 At the differentiated stage (WD) measured in HTS / Level of intensity of expression in log2 measured by high-throughput sequencing, WD: stage WD
Method in brief: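 Total RNA including small RNAs was taken from air-liquid interface cultures at ALI-D0, ALI-D7, ALI-FC (first cilia, ~14 days) and ALI-WD (~21 days). SOLiD small-RNA libraries were sequenced, and 5p/3p reads were normalized to 10^6 sequences and expressed as percentage abundance.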

[2] = test system: human airway epithelial cells (HAECs); test: Agilent miRNA chips, miRNA expression at four stages of differentiation of HAECs; conditions: for Modulation (ratio of the level of intensity of expression in log2 in two stages of differentiation) measured with the Agilent chips, D7 − D0 / Modulation (ratio of the level of intensity of expression in log2 in two stages of differentiation) measured with the Agilent chips, FC − D7 / Modulation (ratio of the level of intensity of expression in log2 in two stages of differentiation) measured with the Agilent chips, WD − D0 / Modulation (ratio of the level of intensity of expression in log2 in two stages of differentiation) measured with the Agilent chips, WD − FC / Level of intensity of expression in log2 measured with the Agilent chips, D0 / Level of intensity of expression in log2 measured with the Agilent chips, D7 / Level of intensity of expression in log2 measured with the Agilent chips, FC / Level of intensity of expression in log2 measured with the Agilent chips, WD: Table VI; for Level of intensity of expression in log2 measured with the Agilent chips, D0: stage D0; for Level of intensity of expression in log2 measured with the Agilent chips, D7: stage D7; for Level of intensity of expression in log2 measured with the Agilent chips, FC: stage FC; for Level of intensity of expression in log2 measured with the Agilent chips, WD: stage WD; for Modulation (ratio of the level of intensity of expression in log2 at two stages of differentiation), FC − D7 / Modulation (ratio of the level of intensity of expression in log2 at two stages of differentiation), WD − FC: Agilent miRNA chips, Table V
Method in brief: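 Expression read from hybridization signals on Human miRNA Microarray v2 arrays spanning all miRBase v.12.0 human miRNAs plus 89 viral ones. Samples are RNA from the same patients profiled by sequencing, labelled with the standard kit.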

[3] = test system: basal cells and pyramidal cells of the airway epithelium; test: miRNA expression in sorted basal cells versus pyramidal cells (ciliated + secretory), HTS and Agilent chips; parameters: species or system human; conditions: for Modulation of expression of the miRNAs in pyramidal cells (323(−)) relative to basal cells 323(+): HTS and Agilent chips; for Intensity of the level of expression in log2 in pyramidal cells (323(−)): pyramidal cells (ciliated + secretory)
Method in brief: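 miRNA repertoires measured by high-throughput sequencing or Agilent arrays on total RNA from sorted airway epithelial populations of 3 donors. Sorting used CD151-PE and anti-tissue factor-FITC: double-positive basal versus double-negative ciliated/secretory cells, with DAPI-stained and aggregated cells excluded.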

Row | Substance | Modulation (ratio of the level of intensity of expression in log2 in two stages of differentiation) measured by high-throughput sequencing, D7 − D0 [1] [log2] | Modulation (ratio of the level of intensity of expression in log2 in two stages of differentiation) measured by high-throughput sequencing, FC − D7 [1] [log2] | Modulation (ratio of the level of intensity of expression in log2 in two stages of differentiation) measured by high-throughput sequencing, WD − D0 [1] [log2] | Modulation (ratio of the level of intensity of expression in log2 in two stages of differentiation) measured by high-throughput sequencing, WD − FC [1] [log2] | Level of intensity of expression in log2 At the differentiated stage (WD) measured in HTS [1] [log2] | Level of intensity of expression in log2 measured by high-throughput sequencing, D0 [1] [log2] | Level of intensity of expression in log2 measured by high-throughput sequencing, D7 [1] [log2] | Level of intensity of expression in log2 measured by high-throughput sequencing, FC [1] [log2] | Level of intensity of expression in log2 measured by high-throughput sequencing, WD [1] [log2] | Modulation (ratio of the level of intensity of expression in log2 in two stages of differentiation) measured with the Agilent chips, D7 − D0 [2] [log2] | Modulation (ratio of the level of intensity of expression in log2 in two stages of differentiation) measured with the Agilent chips, FC − D7 [2] [log2] | Modulation (ratio of the level of intensity of expression in log2 in two stages of differentiation) measured with the Agilent chips, WD − D0 [2] [log2] | Modulation (ratio of the level of intensity of expression in log2 in two stages of differentiation) measured with the Agilent chips, WD − FC [2] [log2] | Level of intensity of expression in log2 measured with the Agilent chips, D0 [2] [log2] | Level of intensity of expression in log2 measured with the Agilent chips, D7 [2] [log2] | Level of intensity of expression in log2 measured with the Agilent chips, FC [2] [log2] | Level of intensity of expression in log2 measured with the Agilent chips, WD [2] [log2] | Modulation of expression of the miRNAs in pyramidal cells (323(−)) relative to basal cells 323(+) [3] | Intensity of the level of expression in log2 in basal cells (323(+)) [3] [log2] | Intensity of the level of expression in log2 in pyramidal cells (323(−)) [3] [log2] | also measured
1 | hsa-miR-203: human miRNA, SEQ ID No. 19 (GUGAAAUGUUUAGGACCACUAG; expressed or natural sequence; listed as Homo sapiens) | 0.11 | −0.21 | 1.08 | 1.18 | 14.55 | 13.50 | 13.60 | 13.39 | 14.57 | 0.97 | −0.67 | 0.44 | 0.13 | 10.64 | 11.61 | 10.95 | 11.08 | −3.50 | 3.64 | 0.14 | Modulation (ratio of the level of intensity of expression in log2 in two stages of differentiation), D7 − D0 ([1]; HTS): 0.11 log2; Modulation (ratio of the level of intensity of expression in log2 in two stages of differentiation), FC − D7 ([1]; HTS): −0.21 log2; Modulation (ratio of the level of intensity of expression in log2 in two stages of differentiation), WD − FC ([1]; HTS): 1.18 log2; Abundance (%), D0 ([1]; HTS, ALI-D0): 2.53%; Level of intensity of expression in log2, D0 ([1]; HTS, ALI-D0 (proliferation)): 13.49 log2; Abundance (%), D7 ([1]; HTS, ALI-D7): 2.73%; Abundance (%), FC ([1]; HTS, ALI-FC): 2.29%; Abundance (%), WD ([1]; HTS, ALI-WD): 3.92%
2 | hsa-miR-25: human miRNA, SEQ ID No. 27 (CAUUGCACUUGUCUCGGUCUGA; expressed or natural sequence; listed as Homo sapiens) | 0.66 | −0.03 | 0.24 | −0.39 | 3.52 | 9.11 | 9.77 | 9.74 | 9.35 | 1.35 | −0.65 | 0.66 | −0.05 | 7.15 | 8.50 | 7.85 | 7.80 | −0.70 | 5.40 | 4.70 | Modulation (ratio of the level of intensity of expression in log2 at two stages of differentiation), FC − D7 [2]: −0.65 log2; Modulation (ratio of the level of intensity of expression in log2 at two stages of differentiation), WD − FC [2]: −0.05 log2
3 | hsa-miR-34a: human miRNA, SEQ ID No. 38 (UGGCAGUGUCUUAGCUGGUUGU; expressed or natural sequence; listed as Homo sapiens) | 1.46 | −1.04 | 0.88 | 0.45 | 13.75 | 10.31 | 11.77 | 10.73 | 11.18 | 2.31 | −0.54 | 1.91 | 0.13 | 8.58 | 10.89 | 10.35 | 10.49 | 0.64 | 6.72 | 7.36 | Modulation (ratio of the level of intensity of expression in log2 at two stages of differentiation), FC − D7 [2]: −0.54 log2; Modulation (ratio of the level of intensity of expression in log2 at two stages of differentiation), WD − FC [2]: 0.13 log2
